The values below are quoted from earlier work in PMC12256174, “Next-Generation Oral Delivery Systems: Phytosomal Hinokitiol Tablets via REGEMAT 3D Bioprinter-Based 3D Printing for Enhanced Bioavailability” (Scientifica, 2025).

≈ marks a conversion by molar mass, not a printed value.

For `CC(C)c1cccc(=O)c(O)c1` [Hinokitiol], the aqueous solubility is recorded as 1.12 ± 0.02 mg/mL (≈ 6.82 mM).
